Patent publication US20260102472A1, “SEMAGLUTIDE IN MEDICAL THERAPY” (Novo Nordisk A/S, priority 2023, published 2026)

Test system: human subjects with obesity-related heart failure with preserved ejection fraction, and type 2 diabetes
Experiment: Randomised, double-blind, placebo-controlled clinical trial of semaglutide in obesity-related HFpEF and type 2 diabetes (Example 2)
Assay type: in vivo
Details: for Time to first HF event from randomisation leading to either hospitalisation or an urgent visit, Hazard ratio: Semaglutide 2.4 mg/placebo
Excerpt: The Kansas City Cardiomyopathy Questionnaire (KCCQ) is a disease-specific health status instrument composed of 23 items that quantify the domains of physical limitation, symptoms, self-efficacy, social limitation, and health-related quality of life limitation from heart failure (available via cvoutcomes.org). The questions of the KCCQ are as published in the appendix of Green et al., JACC 2000; 35 (5): 1245-55:
The Kansas City Cardiomyopathy Questionnaire clinical summary score (KCCQ-CSS) is used for interpretation of the KCCQ and scores range from 0 to 100 where higher scores indicate better function. KCCQ-CSS is calculated as the mean of the available summary scores Physical Limitation Score and Total Symptom Score from the KCCQ. […] “Total Symptom Score” is calculated as the mean of the available summary scores Symptom Frequency Score and Symptom Burden Score. “Symptom Frequency Score” is calculated, if answer to at least two of Questions 3, 5, 7 and 9 are not missing, as 100*(mean of S3, S5, S7 and S9 answered), where S3=[(Question 3)−1]/4, S5=[(Question 5)−1]/6, S7=[(Question 7)−1]/6, and S9=[(Question 9)−1]/4; answers to Question 3 are scored as follows: Every morning=1, 3 or more times a week but not every day=2, 1-2 times a week=3, Less than once a week=4, Never over the past 2 weeks=5; answers to Questions 5 and 7 are scored as follows: All of the time=1, Several times a day=2, At least once a day=3, 3 or more times a week but not every day=4, 1-2 times a week=5, Less than once a week=6, or Never over the past 2 weeks=7; and answers to Question 9 are scored as follows: Every night=1, 3 or more times a week but not every day=2, 1-2 times a week=3, Less than once a week=4, or Never over the past 2 weeks=5. “Symptom Burden Score” is calculated, if answer to at least one of Questions 4, 6 and 8 is not missing, as 100*[(mean of Questions 4, 6 and 8 answered)−1]/4 where answers are scored as follows: Extremely bothersome=1, Quite a bit bothersome=2, Moderately bothersome=3, Slightly bothersome=4, Not at all bothersome=5, or I've had no swelling/fatigue/shortness of breath=5. The term “mean of questions answered” as used herein refers to that for a scale with n in questions where the subject must answer m to score the scale, but the subject answers only n-i, where n-i>=m, then the mean of those questions is calculated as (sum of answers to those n-i questions)/(n-i).
The six minute walk test (6MWT) is a determination of the distance a subject is able to walk over a period of six minutes where the subject traverses, at its own pace and resting as needed, back and forth along a marked walkway of 20 meters with the goal of walking as far as possible without running. The distance obtained from 6MWT is referred to as the six minute walk distance (6MWD). The 6MWT is a direct and timed measure of walking ability, which is technically simple and reproducible.
Heart failure exists in different degrees of severity. The most commonly used classification system of heart failure is the New York Heart Association Functional Classification (also referred to as “NYHA”). NYHA categorises subjects in one of four classes I-IV (Table A), based on their degree of limitation during physical activity, and optionally an additional subgroup A-D based on objective assessments, for further details see The Criteria Committee of the New York Heart Association. Nomenclature and Criteria for Diagnosis of Diseases of the Heart and Great Vessels. 9th ed. Boston, Mass: Little, Brown & Co; 1994:253-256.
A randomised, double-blind, international multicentre, placebo-controlled clinical trial with semaglutide was carried out with 616 human subjects with obesity-related heart failure with preserved ejection fraction, and type 2 diabetes. […]

[1] = pair-wise comparisons vs. placebo, 2.4 mg, type 2 diabetes
[2] = week 0, 2.4 mg once weekly, type 2 diabetes
[3] = week 20, 2.4 mg once weekly, type 2 diabetes
[4] = week 36, 2.4 mg once weekly, type 2 diabetes
[5] = week 52, 2.4 mg once weekly vs. placebo, type 2 diabetes
[6] = week 52, 2.4 mg once weekly vs. placebo, type 2 diabetes, listed as semaglutide
[7] = week 52, 2.4 mg once weekly, type 2 diabetes
[8] = week 52, 2.4 mg once weekly, type 2 diabetes, ANCOVA estimate

## N-epsilon26-[2-(2-{2-[2-(2-{2-[(S)-4-Carboxy-4-(17-carboxyheptadecanoyl-amino) butyrylamino]ethoxy}ethoxy) acetylamino]ethoxy}ethoxy) acetyl] [Aib8,Arg34] GLP-1-(7-37) [Semaglutide]
HFpEF, obesity and type 2 diabetes, no data given
  Inflammation: reduced inflammation
Type 2 diabetes
  Time to first HF event from randomisation leading to either hospitalisation or an urgent visit, Hazard ratio: 0.40
Type 2 diabetes, listed as semaglutide
  Time to first HF event from randomisation leading to either hospitalisation or an urgent visit, Hazard ratio: risk of experiencing a heart failure event was less
Baseline to 52 weeks, type 2 diabetes
  Patients improved or with no change in NYHA class compared with placebo: more patients treated with semaglutide improved or observed no change in NYHA class
Hierarchical composite endpoint, type 2 diabetes
  More wins on semaglutide as compared to placebo: 59%
[1]
  Hierarchical composite endpoint, Loss: All-cause death: 1.9%
  Hierarchical composite endpoint, Loss: Change in 6MWD ≥30 meters difference: 4.1%
  Hierarchical composite endpoint, Loss: Change in KCCQ-CSS ≥5 points difference: 6.2%
  Hierarchical composite endpoint, Loss: Change in KCCQ-CSS ≥10 points difference: 5.0%
  Hierarchical composite endpoint, Loss: Change in KCCQ-CSS ≥15 points difference: 18.2%
  Hierarchical composite endpoint, Loss: Number of HF events: 1.2%
  Hierarchical composite endpoint, Loss: Time-to-first HF event: 0.0%
  Hierarchical composite endpoint, Loss: Total: 36.8%
  Hierarchical composite endpoint, Proportion of ties: Proportion of ties: 4.5%
  Hierarchical composite endpoint, Wins: All-cause death: 2.9%
  Hierarchical composite endpoint, Wins: Change in 6MWD ≥30 meters difference: 4.9%
  Hierarchical composite endpoint, Wins: Change in KCCQ-CSS ≥5 points difference: 7.3%
  Hierarchical composite endpoint, Wins: Change in KCCQ-CSS ≥10 points difference: 6.6%
  Hierarchical composite endpoint, Wins: Change in KCCQ-CSS ≥15 points difference: 32.3%
  Hierarchical composite endpoint, Wins: Number of HF events: 4.7%
  Hierarchical composite endpoint, Wins: Time-to-first HF event: 0.0%
  Hierarchical composite endpoint, Wins: Total: 58.7%
[2]
  Observed KCCQ-CSS mean change from baseline: 0
  Observed body weight (%) mean change from baseline: 0%
  Observed six minutes walk distance mean change from baseline: 0 meters
Week 4, dose escalation to 2.4 mg once weekly, type 2 diabetes
  Observed body weight (%) mean change from baseline: −1.8%
Week 8, dose escalation to 2.4 mg once weekly, type 2 diabetes
  Observed body weight (%) mean change from baseline: −3.1%
Week 12, dose escalation to 2.4 mg once weekly, type 2 diabetes
  Observed body weight (%) mean change from baseline: −4.5%
Week 16, dose escalation to 2.4 mg once weekly, type 2 diabetes
  Observed body weight (%) mean change from baseline: −5.8%
[3]
  Observed KCCQ-CSS mean change from baseline: 11.1
  Observed body weight (%) mean change from baseline: −6.6%
  Observed six minutes walk distance mean change from baseline: 23.0 meters
Week 28, 2.4 mg once weekly, type 2 diabetes
  Observed body weight (%) mean change from baseline: −8.0%
[4]
  Observed KCCQ-CSS mean change from baseline: 14.2
  Observed body weight (%) mean change from baseline: −9.1%
Week 44, 2.4 mg once weekly, type 2 diabetes
  Observed body weight (%) mean change from baseline: −9.8%
[5]
  Body weight (%) change from baseline to week 52, Treatment difference vs. placebo: −6.4%
  Improvement of ≥5 points in KCCQ-CSS, Treatment Odds ratio vs. placebo: 2.29
  Improvement of ≥10 points in KCCQ-CSS, Treatment Odds ratio vs. placebo: 2.06
  KCCQ-CSS change from baseline to week 52, Treatment difference vs. placebo: 7.3 score
  Six minutes walk distance change from baseline to week 52, Treatment difference vs. placebo: 14.3 meters
[6]
  Body weight (%) change from baseline to week 52, Treatment difference vs. placebo: significantly larger body weight loss
  KCCQ-CSS change from baseline to week 52, Treatment difference vs. placebo: significantly larger improvement in KCCQ-CSS
  Six minutes walk distance change from baseline to week 52, Treatment difference vs. placebo: significantly larger improvement in six minutes walk distance
[7]
  NYHA class from baseline to week 52: Improvement: 33.9%
  NYHA class from baseline to week 52: No change: 63.7%
  NYHA class from baseline to week 52: Worsening: 2.4%
  Observed KCCQ-CSS mean change from baseline: 14.4
  Observed body weight (%) mean change from baseline: −10.2%
  Observed proportion improving ≥5 points from baseline in KCCQ-CSS: 73%
  Observed proportion improving ≥10 points from baseline in KCCQ-CSS: 58%
  Observed six minutes walk distance mean change from baseline: 18.6 meters
[8]
  Body weight (%) change from baseline to week 52, Estimate: −9.8%
  KCCQ-CSS change from baseline to week 52, Estimate: 13.7 score
  Six minutes walk distance change from baseline to week 52, Estimate: 12.7 meters
